Data: patent publication US20110117200A1 (ACTAVIS GROUP PTC EHF, priority 2008, published 2011)
Where a name gives a salt, the structure may show the parent alone.

How the values were obtained:
[1] = sunflower oil dispersant; for Particle size (D50): size below which 50% of the particles by volume are found; for Particle size (D90): size below which 90% of the particles by volume are found
Protocol: Particle Size Distribution (PSD)” is determined by laser diffraction in a Malvern Master Sizer 2000 equipment or its equivalent: Measurement conditions:
As used herein, “Particle Size Distribution (P.S.D)” means the cumulative volume size distribution of equivalent spherical diameters as determined by laser diffraction in Malvern Master Sizer 2000 equipment or its equivalent.
As used herein, Dx means that X percent of the particles have a diameter less than a specified diameter D. Thus, a D90 or d(0.9) of less than 300 microns means that 90 volume-percent of the particles in a composition have a diameter less than 300 microns.
The important characteristics of the PSD were the (D90), which is the size, in microns, below which 90% of the particles by volume are found, and the (D50), which is the size, in microns, below which 50% of the particles by volume are found.

[2] = cited from earlier work
[3] = target: B-form of the enzyme monoamine oxidase (MAO-B) (Homo sapiens, UniProt P27338); conditions: qualitative statement in the background; cited from earlier work
Chain of B-form of the enzyme monoamine oxidase (MAO-B) (P27338 whole entry, species assumed): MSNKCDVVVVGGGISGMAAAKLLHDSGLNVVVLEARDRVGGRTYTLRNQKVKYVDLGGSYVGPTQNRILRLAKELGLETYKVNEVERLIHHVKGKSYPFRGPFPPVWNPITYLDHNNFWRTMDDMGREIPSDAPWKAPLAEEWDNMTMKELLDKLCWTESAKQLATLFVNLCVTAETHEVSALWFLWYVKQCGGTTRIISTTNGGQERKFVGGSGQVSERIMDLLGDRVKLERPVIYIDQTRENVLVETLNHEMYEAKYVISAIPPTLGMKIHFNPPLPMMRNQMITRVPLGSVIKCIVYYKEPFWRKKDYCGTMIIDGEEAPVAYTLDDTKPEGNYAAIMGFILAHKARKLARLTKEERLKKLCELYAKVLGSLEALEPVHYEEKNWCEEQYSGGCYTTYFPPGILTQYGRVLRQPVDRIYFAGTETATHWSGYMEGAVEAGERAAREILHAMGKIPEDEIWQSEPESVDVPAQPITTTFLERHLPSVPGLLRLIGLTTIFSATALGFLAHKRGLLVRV

Row | SMILES | Particle size (D50) [1] [microns] | Particle size (D90) [1] | other results
1 | C#CCN[C@@H]1CCc2ccccc21 [Example 1, rasagiline mesylate] | 663 | 1407 microns | –
2 | C#CCN[C@@H]1CCc2ccccc21 [Example 2, rasagiline mesylate] | 864 | 1496 microns | –
3 | C#CCN[C@@H]1CCc2ccccc21.CS(=O)(=O)O [Rasagiline mesylate, rasagiline mesylate] | – | – | Solubility in ethanol ([2]; ethanol): freely soluble; Solubility in isopropanol ([2]; isopropanol): sparingly soluble; Solubility in water ([2]; water): freely soluble
4 | C#CCN[C@@H]1CCc2ccccc21 [Example 4, rasagiline mesylate] | – | less than 400 microns | –
5 | C#CCN[C@@H]1CCc2ccccc21 [Example 3, rasagiline mesylate] | – | less than 300 microns | –
6 | C#CCN[C@@H]1CCc2ccccc21 [Rasagiline, R(+)—N-propargyl-1-aminoindan] | – | – | Inhibition of MAO-B [3]: selective inhibitor
